Earlier results in patent publication US20070043054A1, “Enzyme cofactor combination for supplementing pyruvate dehydrogenase and alpha ketogluterate dehydrogenase complexes” (priority 2004, published 2007).

Assays:
[1] = for stability in aqueous solution: neutral or alkaline solutions

Row | Structure (SMILES) | solubility in water | stability in aqueous solution [1] | solubility in alkali (alkali) | solubility in organic solvents (organic solvents) | stability to dry heat [1] | temperature up to which the dry form is stable ([1]; dry form)
1 | NC(=O)c1cccnc1 [Niacinamide] | soluble in water and ethanol | stable for a short period when autoclaved |  |  |  | 
2 | Cc1cc2nc3c(=O)[nH]c(=O)nc-3n(C[C@H](O)[C@H](O)[C@H](O)CO)c2cc1C [Riboflavin] | very slightly soluble in water | stable to oxidizing agents in strong mineral acids and in neutral aqueous solution | soluble in alkali | insoluble in most organic solvents | stable to dry heat | 
3 | Cc1ncc(C[n+]2csc(CCO)c2C)c(N)n1 [Thiamine] | water-soluble | rapidly broken down in neutral or alkaline solutions |  |  | comparatively stable to dry heat | 
4 | O=C(O)c1cccnc1 [niacin] |  |  |  |  |  | about 60 °C
